Measurements published in ChEMBL document CHEMBL1221206, “Targeting virulence: a new paradigm for antimicrobial therapy” (Nat Chem Biol, 2007).

System: 5637
Experiment: Inhibition of type-1 pilus-mediated Escherichia coli HB101 adhesion to human 5637 cells after 1 hr
Assay type: cell-based
Details: dose or concentration not given here

## CN(C)Cc1c(Cc2cccc3ccccc23)c(-c2ccccc2)c2n(c1=O)[C@H](C(=O)O)CS2
  inhibition: 90%
